Laboratory results as given in paper PMC6312923 (Life Science Alliance, 2018).

Assays:
[1] = system: Cdt1; test: Co-immunoprecipitation of Cdt1 with FLAG-tagged Cdt2; assay type: cell-based, human; details: anti-FLAG IP, HEK293, with or without UV irradiation
Excerpt: Figure 3. […] HEK293 cells were transfected with plasmids expressing the indicated Cdt2 fused to a C-terminal FLAG tag, cross-linked, and precipitated with anti-FLAG antibodies (arrows). […] The bands in the blank lanes for Cul4A blotting correspond to the cross-reacting bands to pre-stained marker. […] HEK293 cells were transfected with the indicated plasmids and treated as in A. * indicates nonspecific bands derived from IgGs. (C) A schematic drawing of the Cdt2 domain structure highlighting the C-terminal PIP box and a sequence alignment of PIP boxes in various organisms. The alanine-changed PIP box mutant of Cdt2 was shown (PIP-3A) together with Cdt1 PIP box. (D) HEK293 cells were transfected with Cdt2^WT or PIP box mutant (Cdt2^PIP-3A) C-terminally fused to a FLAG tag, treated as in B, and Cdt2 was precipitated with anti-FLAG resin.
Next, we examined the interaction of CRL4^Cdt2 ligase with its target protein Cdt1, using HEK293 cells alone and cells transfected with Cdt2^WT or Cdt2^PIP-3A, with or without UV irradiation. […]

[2] = system: Cdt1 poly-ubiquitination; test: Poly-ubiquitination of Cdt1 in HEK293 cells; assay type: cell-based, human; details: for poly-ubiquitinated Cdt1 level: HEK293, MG132 3 h, asynchronous; for poly-ubiquitination of Cdt1 after UV: HEK293, endogenous Cdt2 depleted (siCdt2), MG132 25 μM, UV 20 J/m^2
Protocol: Figure 6. The Cdt2 PIP box is important for its recruitment to DNA damage sites and replication foci and for poly-ubiquitination activity. (A) HEK293 and stable Cdt2^WT or Cdt2^PIP-3A cells were locally UV irradiated, and stained for XPA and FLAG (Cdt2). XPA-positive spots were examined for FLAG signal, and its frequency was counted (%). More than 50 spots were examined. bar:10 μm. […] Bar: 10 μm. […] (D) Whole-cell extracts were prepared from HEK293 and stably transfected cells of Cdt2^WT or Cdt2^PIP-3A cells, separated into soluble (Sup) and chromatin-containing insoluble (Ppt) fractions, and were examined for indicated proteins. The asterisk indicates nonspecific bands. (E) HEK293 and stably transfected cells of Cdt2^WT or Cdt2^PIP-3A were treated with MG132 for 3 h. Whole-cell extracts (WCE) were prepared, separated into soluble (Sup) and insoluble (Ppt) fractions, and blotted with the indicated antibodies.
Figure S6. Cdt2 PIP box is important for its recruiting to DNA replication sites and its poly-ubiquitination activity in HEK293 cells. […] (B) Poly-ubiquitination after UV irradiation. HEK293 and its stables expressing Cdt2^WT or Cdt2^PIP-3A were transfected with siCdt2 or control (siLuc). Three days later, cells were treated with MG132 (25 μM), and 10 min later irradiated with UV (20 J/m^2). Cells were collected at the indicated time points, and used for Western blotting with indicated antibodies.
To consider this possibility, asynchronously growing control HEK293 cells and cells expressing Cdt2^WT or Cdt2^PIP-3A were treated with proteasome inhibitor MG132 and the levels of poly-ubiquitinated Cdt1 were examined. […] Cdt2^PIP-3A-expressing cells however had reduced level of both poly-ubiquitinated Cdt1 and p21 on chromatin.
Next, we examined the accumulation of poly-ubiquitinated Cdt1 after UV irradiation. For this experiment, the endogenous Cdt2 was depleted with an siRNA targeted to the 3′ UTR to assay for the activity of introduced Cdt2. Cells were treated with MG132, irradiated with UV and the levels of poly-ubiquitinated Cdt1 were monitored by Western blotting. In HEK293 cells treated with control siRNA, poly-ubiquitinated Cdt1 was detected 15 min after irradiation (Fig S6B). […] The defect was rescued by Cdt2^WT expression.

Row | Molecule | co-precipitation of PCNA and Cdt1 [1] | poly-ubiquitinated Cdt1 level [2] | poly-ubiquitination of Cdt1 after UV [2]
1 | Cdt2: Cdt2 tagged with GFP, transiently expressed in MCF7 cells | both PCNA and Cdt1 were precipitated, and their amounts were notably increased after UV irradiation | clearly detected | rescued
2 | Cdt2^PIP-3A: Cdt2 with I709, Y712, and F713 all mutated to alanine (protein, UniProt Q9NZJ0 1-730, looked up, variant I709A Y712A F713A, FLAG tag, Cdt2 with I709, Y712, and F713 all mutated to alanine) Denticleless protein homolog: MLFNSVLRQPQLGVLRNGWSSQYPLQSLLTGYQCSGNDEHTSYGETGVPVPPFGCTFSSAPNMEHVLAVANEEGFVRLYNTESQSFRKKCFKEWMAHWNAVFDLAWVPGELKLVTAAGDQTAKFWDVKAGELIGTCKGHQCSLKSVAFSKFEKAVFCTGGRDGNIMVWDTRCNKKDGFYRQVNQISGAHNTSDKQTPSKPKKKQNSKGLAPSVDFQQSVTVVLFQDENTLVSAGAVDGIIKVWDLRKNYTAYRQEPIASKSFLYPGSSTRKLGYSSLILDSTGSTLFANCTDDNIYMFNMTGLKTSPVAIFNGHQNSTFYVKSSLSPDDQFLVSGSSDEAAYIWKVSTPWQPPTVLLGHSQEVTSVCWCPSDFTKIATCSDDNTLKIWRLNRGLEEKPGGDKLSTVGWASQKKKESRPGLVTVTSSQSTPAKAPRAKCNPSNSSPSSAACAPSCAGDLPLPSNTPTFSIKTSPAKARSPINRRGSVSSVSPKPPSSFKMSIRNWVTRTPSSSPPITPPASETKIMSPRKALIPVSQKSSQAEACSESRNRVKRRLDSSCLESVKQKCVKSCNCVTELDGQVENLHLDLCCLAGNQEDLSKDSLGPTKSSKIEGAGTSISEPPSPISPYASESCGTLPLPLRPCGEGSEMVGKENSSPENKNWLLAMAAKRKAENPSPRSPSSQTPNSRRQSGKKLPSPVTITPSSMRKACTAAHRKSQEDFCGPEHSTEL | neither Cdt1 nor PCNA co-precipitated well | reduced | defective in poly-ubiquitination of Cdt1
